Data published in US7511167B2, “Two-photon dyes for real-time imaging of lipid rafts” (Korea University Industry and Academy Cooperation Foundation, priority 2006, dated 2009).
Several values for one entry are separate records, joined by “and”; a condition that tells them apart may be missing. Equal entries are not always repeated. Where two headings read alike, the source gives them in different places.

Assays:
[1] = Reflection tests of polarity of solvents, fluorescence spectra (Test Example 1); type: physicochemical
Description: Time-resolved fluorescence (TRF) spectra of the two-photon dyes prepared in Comparative Example 1 and Example 1 were measured to examine changes in the one-photon fluorescence wavelength of the dyes according to the polarity of solvents. In this test, hexane, DMF, ethanol and water were used as solvents. The polarity of the solvents increases in the order: hexane<DMF<ethanol<water. […] Since Laurdan has a long hydrocarbon tail, the dye molecules surrounded by the adjacent dye molecules were placed in a hydrophobic environment, and as a result, a blue shift was observed. […] From these observations, it can be concluded that Laurdan is not suitable for use in real-time imaging of lipid rafts.
On the other hand, time-resolved fluorescence (TRF) spectra of the two-photon dye (TPD4) prepared in Example 4 were measured to examine changes in the one-photon fluorescence wavelength of the dye according to the polarity of solvents. In this test, THF, DMF, ethanol and ethanol/water were used as solvents. The polarity of the solvents increases in the order: THF<DMF<ethanol<ethanol/water. […] As mentioned previously, the reason for this is because the fluorescence quantum yield and fluorescence lifetime of TPD4 in a hydrophilic environment were decreased drastically. Therefore, lipid rafts can be directly observed due to the difference in fluorescence intensity.

[2] = Reflection tests of polarity of liposomes (Test Example 3); type: physicochemical; conditions: for fluorescence wavelength (peaks): DOPC liposomes; for maximum fluorescence wavelength: DPPC liposomes
Description: Three kinds of liposomes having different fluidity (polarity) were prepared to examine how much the two-photon dyes prepared in Example 1 and Comparative Example 1 reflected the polarity of the liposomes. Specifically, DOPC liposomes were prepared from 1,2-dioleoyl-sn-glycerol-3-phosphocholine (DOPC) having unsaturated fatty acids so as to reflect the fluidity of phospholipids of plasma membranes. The DOPC liposomes were relatively fluid. DOPC/Sphingo/Chol liposomes were composed of DOPC, sphingomyelin and cholesterol in the same ratio so as to simultaneously reflect phospholipids and lipid rafts. DPPC liposomes were prepared from 1,2-dipalmitoyl-sn-glycerol-3-phosphocholine (DPPC) so as to reflect lipid rafts. The DPPC liposomes were in a gel state and had lowest fluidity. Next, the three kinds of liposomes were stained with Laurdan and TPD1, and their spectral properties were examined. Referring to FIGS. 3a (Laurdan) and 3b (TPD1), the maximum one-photon absorption wavelengths of Laurdan and TPD1 were in the range of 360-395 nm, regardless of the kind of the liposomes. However, the fluorescence intensity of the liposomes increased with the hydrophobicity of the liposomes in the order: DOPC<DOPC/Sphingo/Chol<DPPC. […] Referring to FIG. 3c, the maximum fluorescence wavelength of Laurdan in DPPC is 440 nm and the fluorescence spectrum of Laurdan in DOPC is broader.
In the meanwhile, the fluorescence wavelength bands of Laurdan in DOPC/Sphingo/Chol and DPPC were confirmed to overlap almost completely. […] In contrast, TPD1 prepared in Example 1 emitted fluorescence of 442 nm in DPPC and fluorescence of 486 nm in DOPC (FIG. 3d). In addition, the fluorescence spectrum of TPD1 in the DOPC/Sphingo/Chol liposomes is broad and almost the same as the sum of the spectra in the DPPC and DOPC liposomes.
On the other hand, the different kinds of liposomes were stained with TPD4 prepared in Example 4, and their fluorescence spectra were examined. Referring to FIG. 4, the fluorescence intensity of the fluid DOPC liposomes (in a hydrophilic environment) was ⅛ of that of the DPPC liposomes and about 1/6.5 of that of the DOPC/Sphingo/Chol liposomes.

A431 cells = experiment: Cytotoxicity test, MTT assay (Test Example 7); type: cell-based; conditions: 1×10^−5 M, DMSO (1%) reference, incubation for 6 hours
Excerpt: To evaluate whether the two-photon dyes of the present invention are cytotoxic or not, MTT assay was done on the two-photon dye prepared in Example 1. Specifically, A431 cells were stained with TPD1 (1×10^−5 M) and DMSO (1%) was used as a reference solvent. […] Therefore, it can be concluded that the two-photon dye of the present invention is suitable for imaging of living cells.

[3] = Spectroscopic measurements of the dyes in four solvents (Test Example 2); type: physicochemical; conditions: for quantum yield in water relative to that in ethanol: water versus ethanol
Description: The two-photon dyes prepared in Example 1 and Comparative Example 1 were dissolved in four solvents (hexane, DMF, ethanol and water), respectively. The one-photon maximum absorption wavelength (λmax), one-photon maximum emission wavelength (λ^f1max), two-photon maximum absorption wavelength (λ^(2)max), quantum yield (Φ) and two-photon absorption efficiency (δmax) of the solutions were measured, and the results are shown in Table 1. The absorption spectra were measured on a Hewlett-Packard 8453 diode array spectrophotometer. The fluorescence spectra were obtained with an Aminco Bowman series 2 luminescence spectrometer. The two-photon absorption efficiency means a maximum value of a two-photon cross section (δTPA). The two-photon cross section can be calculated by the following equation 1: […]
wherein the subscripts s and r represent sample and reference molecules, respectively, δ represents the two-photon cross section, S represents the strength of signals collected by a CCD detector, Φ represents the fluorescence quantum efficiency, φ represents the total fluorescence collection efficiency of an experimental system, c represents the number density of the molecules within each of the solutions, and δr represents the two-photon cross section of reference molecules.

[4] = cited from earlier work

fluorescence wavelength (peaks) [2]	maximum fluorescence wavelength [2] [nm]	Φ (quantum yield) ([3]; solvent DMF)	δmax (two-photon absorption efficiency) ([3]; solvent DMF) [GM]	λ^(2)max (two-photon maximum absorption wavelength) ([3]; solvent DMF)	λ^flmax (one-photon maximum emission wavelength) ([3]; solvent DMF)	λmax (one-photon maximum absorption wavelength) ([3]; solvent DMF)	Φ (quantum yield) ([3]; solvent ethanol)	δmax (two-photon absorption efficiency) ([3]; solvent ethanol) [GM]	λ^(2)max (two-photon maximum absorption wavelength) ([3]; solvent ethanol)	λ^flmax (one-photon maximum emission wavelength) ([3]; solvent ethanol)	λmax (one-photon maximum absorption wavelength) ([3]; solvent ethanol)	Φ (quantum yield) ([3]; solvent hexane)	λ^flmax (one-photon maximum emission wavelength) ([3]; solvent hexane)	λmax (one-photon maximum absorption wavelength) ([3]; solvent hexane)	Φ (quantum yield) ([3]; solvent water)	λ^flmax (one-photon maximum emission wavelength) ([3]; solvent water)	λmax (one-photon maximum absorption wavelength) ([3]; solvent water)	quantum yield in water relative to that in ethanol [3]	SMILES	also measured
–	–	–	–	–	–	–	–	–	–	–	–	–	–	–	–	–	–	–	CCCCCCCCCC(=O)/C=C/c1ccc2cc(N(C)CC(=O)OC(C)(C)C)ccc2c1 [TPD4]	fluorescence intensity as the polarity of the solvents increased ([1]; THF<DMF<ethanol<ethanol/water): reduced drastically; fluorescence intensity of DOPC liposomes relative to DPPC liposomes ([2]; stained liposomes): ⅛
486 nm	442	0.36	167	780	446	363	0.43	153	780	494	383	0.10	404	345	0.11	522	384	¼	CCCCCCCCCCCC(=O)c1ccc2cc(N(C)CC(=O)O)ccc2c1 [TPD1]	maximum fluorescence wavelength as the polarity of the solvents increased ([1]; hexane<DMF<ethanol<water): increased; fluorescence intensity relative to Laurdan ([2]; in all liposomes): 2-5 times; cytotoxicity (cell viability, MTT) versus reference solvent (A431 cells): no significant difference in cytotoxicity; two-photon absorption efficiency relative to the dye of Comparative Example 1 [3]: about three to six times; two-photon absorption efficiency, maximum ([3]; over the solvents): 323 GM; two-photon absorption efficiency, minimum ([3]; over the solvents): 153 GM; δmax (two-photon absorption efficiency) ([3]; solvent water): 323 GM; λ^(2)max (two-photon maximum absorption wavelength) ([3]; solvent water): 820
439 nm and 484 nm	440	1.00	50	780	454	356	1.00	57	780	487	363	0.11	407	344	0.01	431	354	1/100	CCCCCCCCCCCC(=O)c1ccc2cc(N(C)C)ccc2c1 [Laurdan, reference compound]	solubility in water ([1]; water): substantially insoluble in water; wavelength of light emitted in water ([1]; water): 400-460 nm; maximum fluorescence wavelength in water with the highest polarity ([1]; water versus less polar solvents): decreased (i.e. blue-shifted); fluorescence emitted in lipid raft domains in a hydrophobic environment ([4]; cell membranes): 400 to 460 nm; fluorescence emitted in phospholipid domains in a hydrophilic environment ([4]; cell membranes): 470 to 530 nm; fluorescence emitted by the precipitate ([4]; water): 450 nm; solubility in water ([4]; water): barely soluble in water
